SMILES strings stand for the structures.

A word on the Emax: it is the maximal effect, on the per cent scale that the assay sets.

For the experiment, the target named is Metabotropic glutamate receptor 2 (Homo sapiens) (UniProt Q14416). Kind of experiment: Negative allosteric modulation of human mGluR2 receptor expressed in CHO cell membranes assessed as inhibition of glutamate responses after 30 mins by [35S]GTPgammaS binding assay. In kind it is functional. On the technique in general: GTPγS resists hydrolysis and so accumulates on activated G proteins.
Metabotropic glutamate receptor 2 (Homo sapiens), sequence (Q14416 19-872 limits assumed): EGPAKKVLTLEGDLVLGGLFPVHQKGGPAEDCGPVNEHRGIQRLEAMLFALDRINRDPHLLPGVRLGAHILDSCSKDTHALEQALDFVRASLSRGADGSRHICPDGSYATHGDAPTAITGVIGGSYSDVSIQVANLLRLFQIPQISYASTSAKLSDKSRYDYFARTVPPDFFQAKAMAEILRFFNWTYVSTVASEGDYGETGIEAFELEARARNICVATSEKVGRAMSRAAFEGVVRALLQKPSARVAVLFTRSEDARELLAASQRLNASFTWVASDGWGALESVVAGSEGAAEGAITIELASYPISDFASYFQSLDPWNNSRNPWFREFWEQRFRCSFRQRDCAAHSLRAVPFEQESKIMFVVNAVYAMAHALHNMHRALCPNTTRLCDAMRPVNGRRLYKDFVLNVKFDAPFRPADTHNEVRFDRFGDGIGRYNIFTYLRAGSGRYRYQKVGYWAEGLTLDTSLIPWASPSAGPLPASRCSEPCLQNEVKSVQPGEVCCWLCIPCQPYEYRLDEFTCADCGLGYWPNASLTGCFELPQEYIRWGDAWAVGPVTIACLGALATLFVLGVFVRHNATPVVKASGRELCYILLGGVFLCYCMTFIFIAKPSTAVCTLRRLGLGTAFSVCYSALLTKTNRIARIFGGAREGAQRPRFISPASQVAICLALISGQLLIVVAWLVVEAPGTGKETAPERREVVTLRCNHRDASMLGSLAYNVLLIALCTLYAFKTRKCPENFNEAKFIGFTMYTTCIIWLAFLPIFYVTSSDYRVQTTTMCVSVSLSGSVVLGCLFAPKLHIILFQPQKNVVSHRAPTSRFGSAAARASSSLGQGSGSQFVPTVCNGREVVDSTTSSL
Consider `CCC1CN(c2ccc(C(F)(F)F)cc2)C(=O)c2c(-c3ccnc(C)c3)cnn21` (centres undefined), for which the Emax was found to be 106%.
The same measure for `Cc1cc(-c2cnn3c2C(=O)N(c2ccc(C(F)(F)F)cc2)C[C@@H]3C)ccn1`: 106%.
The same measure for `C[C@H]1CN(c2ccc(C(F)(F)F)c(Cl)c2)C(=O)c2c(-c3ccnc(C#N)c3)cnn21`: 109%.
For the molecule `Cc1cc(-c2cnn3c2C(=O)N(c2ccc(C(C)O)cc2)C[C@@H]3C)ccn1` (some centres undefined), the Emax stood at 49%.

The values above are taken from ChEMBL document CHEMBL3421584, “Allosteric modulators: an emerging concept in drug discovery” (ACS Med Chem Lett, 2015).
